Columns and labels:
[1] = biological target: T1, longitudinal muscle from the intact ileum of guinea-pigs (response to histamine) (Cavia porcellus, UniProt P31389); test: In vitro antihistaminic activity (inhibition of histamine concentration-response in isolated ileum longitudinal muscle); parameters: species or system guinea-pigs (Hartley, male); conditions: negative log of the concentration which gives a significant antihistaminic effect; guinea-pig ileum longitudinal muscle; one hour incubation with test compound; Arunlakshana and Schild method; read-out: pA2 (converted)
T1 construct: The longitudinal muscle was isolated from the intact ileum of guinea-pigs; from tissue; host or cells: longitudinal muscle of guinea-pig ileum (Hartley, male)
Procedure: In vitro antihistaminic activity: The longitudinal muscle was isolated from the intact ileum of guinea-pigs (Hartley, male, 250-400 g) and placed in an organ bath under 300 mg tension. After one hour of equilibration, cumulative concentration-response curves (Van Rossum, J. M., Arch. Int. Pharmacodyn. Ther. 143, 299-330, 1963) to histamine were obtained. Following washing, the tissues were incubated for one hour with the test compound and then a second histamine concentration-response curve was run. Antihistaminic activity was determined as pA2 values by the method of Arunlakshana, O. and Schild, H. O. (Br. J. Pharmacol: 14, 48-58, 1959).

[2] = clinical use, most patients; Goodman and Gilman, 4th ed., p. 640, 1970; cited from earlier work
[3] = biological target: T1, longitudinal muscle from the intact ileum of guinea-pigs (response to histamine); conditions: literature value, R. B. Barlow, Introduction to Chemical Pharmacology, 2nd ed., p. 357, 1964; cited from earlier work

T1 sequence (P31389 whole entry): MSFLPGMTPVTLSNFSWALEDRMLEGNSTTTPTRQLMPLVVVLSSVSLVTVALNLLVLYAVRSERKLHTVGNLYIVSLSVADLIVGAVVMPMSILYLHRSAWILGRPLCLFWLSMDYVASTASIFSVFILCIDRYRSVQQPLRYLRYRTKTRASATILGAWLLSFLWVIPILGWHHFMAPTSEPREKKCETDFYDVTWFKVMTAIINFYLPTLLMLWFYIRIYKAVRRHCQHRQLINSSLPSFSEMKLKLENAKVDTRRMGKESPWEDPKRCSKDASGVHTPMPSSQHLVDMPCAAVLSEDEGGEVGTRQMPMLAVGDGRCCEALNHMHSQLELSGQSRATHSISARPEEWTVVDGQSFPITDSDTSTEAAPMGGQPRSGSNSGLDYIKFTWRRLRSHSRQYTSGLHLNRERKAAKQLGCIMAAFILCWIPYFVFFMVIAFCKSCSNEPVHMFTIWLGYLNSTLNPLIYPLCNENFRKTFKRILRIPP

| Compound | Kb [1] | sedation and drowsiness [2] | pA2 [3] |
| --- | --- | --- | --- |
| COc1ccc(C(c2cccc(C(=O)O)c2)N2CCN(C)CC2)cc1 (stereo not drawn) [E, 3-(4-Methoxy-α-(4-methyl-1-piperazinyl)benzyl)benzoic acid] | 316 nM | – | – |
| CN1CCN(C(c2ccc(Cl)cc2)c2ccc(C(=O)O)cc2)CC1 (stereo not drawn) [D, 4-(4-Chloro-α-(4-methyl-1-piperazinyl)benzyl)benzoic acid] | 2510 nM | – | – |
| CN1CCN(C(c2ccc(Cl)cc2)c2cccc(/C=C/C(=O)O)c2)CC1 (stereo not drawn) [A, (E)-3-(4-Chloro-α-(4-methyl-1-piperazinyl)-benzyl)cinnamic acid] | 501 nM | – | – |
| CN1CCN(C(c2ccc(Cl)cc2)c2ccccc2C(=O)O)CC1 (stereo not drawn) [C, 2-(4-Chloro-α-(4-methyl-1-piperazinyl)benzyl)benzoic acid] | 2510 nM | – | – |
| CN1CCN(C(c2ccc(Cl)cc2)c2cccc(OCC(=O)O)c2)CC1 (stereo not drawn) [F, 3-(4-Chloro-α-(4-methyl-1-piperazinyl)benzyl)phenoxyacetic acid] | 158 nM | – | – |
| Cc1cccc(CN2CCN(C(c3ccc(Cl)cc3)c3cccc(OCC(=O)O)c3)CC2)c1 (stereo not drawn) [G, 3-(4-Chloro-α-(4-(3-methylbenzyl)-1-piperazinyl)benzyl)phenoxyacetic acid] | 1.58 nM | – | – |
| CN1CCN(C(c2ccccc2)c2ccc(Cl)cc2)CC1 (stereo not shown) [Chlorcyclizine, 1-(4-Chlorobenzhydryl)-4-methylpiperazine] | – | produces sedation and drowsiness in varying degrees in most patients | 8.6 |
| CC(C)(C)c1ccc(CN2CCN(C(c3ccc(Cl)cc3)c3cccc(OCC(=O)O)c3)CC2)cc1 (stereo not drawn) [H, 3-(4-Chloro-α-(4-(4-tert-butylbenzyl)-1-piperazinyl)benzyl)phenoxyacetic acid] | 6.31 nM | – | – |
| CN1CCN(C(c2ccc(Cl)cc2)c2cccc(C(=O)O)c2)CC1 (stereo not drawn) [B, 3-(4-Chloro-α-(4-methyl-1-piperazinyl)benzyl)benzoic acid] | 398 nM | – | – |

— US4757074A, “Piperazinyl benzyl acids having antihistamine activity” (Burroughs Wellcome Co., priority 1983, dated 1988)
